Results from ChEMBL document CHEMBL4316588, “Design, Synthesis, and Biological Evaluation of Novel DNA Gyrase-Inhibiting Spiropyrimidinetriones as Potent Antibiotics for Treatment of Infections Caused by Multidrug-Resistant Gram-Positive Bacteria” (J Med Chem, 2019).
In brackets after ≈: the same amount, converted by molar mass. Activity calls are given as the source filed them. The calls are words filed in the database; no cut-off is given here.

Tests used:
Format in all cases: functional
Staphylococcus aureus [1] = test: Antibacterial activity against methicillin-sensitive Staphylococcus aureus after 18 to 20 hrs by CLSI-protocol based broth microdilution method
Staphylococcus aureus [2] = test: Antibacterial activity against methicillin-resistant Staphylococcus aureus after 18 to 20 hrs by CLSI-protocol based broth microdilution method
[3] = system: Staphylococcus epidermidis; test: Antibacterial activity against methicillin-sensitive Staphylococcus epidermidis after 18 to 20 hrs by CLSI-protocol based broth microdilution method
[4] = system: Staphylococcus epidermidis; test: Antibacterial activity against methicillin-resistant Staphylococcus epidermidis after 18 to 20 hrs by CLSI-protocol based broth microdilution method
Streptococcus pyogenes = test: Antibacterial activity against Streptococcus pyogenes after 18 to 20 hrs by CLSI-protocol based broth microdilution method
Streptococcus pneumoniae = test: Antibacterial activity against penicillin-resistant Streptococcus pneumoniae after 18 to 20 hrs by CLSI-protocol based broth microdilution method
[5] = Staphylococcus aureus, read-out: MIC
[6] = Streptococcus pyogenes, read-out: MIC

Structure (SMILES) | MIC (Staphylococcus aureus [1]; [5]) [µg/mL] | MIC (Staphylococcus aureus [2]) | MIC [3] | MIC [4] | MIC (Streptococcus pyogenes; [6]) [µg/mL] | MIC (Staphylococcus aureus [1]) | MIC (Streptococcus pneumoniae) | MIC (Streptococcus pyogenes)
C[C@H]1COc2c(N3CCN(C)CC3)c(F)cc3c(=O)c(C(=O)O)cn1c23.C[C@H]1COc2c(N3CCN(C)CC3)c(F)cc3c(=O)c(C(=O)O)cn1c23.O [LEVOFLOXACIN] | 4 to 64 | 16 to 64 µg/mL | 0.5 to 4 µg/mL | 4 to 64 µg/mL | 0.5 to 1 | – | – | –
C[C@@H]1CN2c3c(cc4c(N5CCOC5=O)ncnc4c3F)CC3(C(=O)NC(=O)NC3=O)[C@H]2[C@H](C)O1 (relative stereo) | – | inactive | inactive | inactive | – | inactive | inactive | inactive
C[C@@H]1CN2c3c(cc4c(N5C[C@H](C)SC5=O)noc4c3C#N)CC3(C(=O)NC(=O)NC3=O)[C@H]2[C@H](C)O1 | 0.06 to 1 (≈ 0.118 to 1.96 µM) | – | 0.06 to 0.125 µg/mL (≈ 0.118 to 0.245 µM) | 0.06 to 0.5 µg/mL (≈ 0.118 to 0.979 µM) | 0.125 to 0.5 (≈ 0.245 to 0.979 µM) | – | 0.125 to 0.25 µg/mL (≈ 0.245 to 0.49 µM) | –
C[C@@H]1CN2c3c(cc4c(N5C(=O)SCC56CC6)noc4c3F)CC3(C(=O)NC(=O)NC3=O)[C@H]2[C@H](C)O1 | 2 to 4 (≈ 3.88 to 7.76 µM) | 0.5 to 8 µg/mL (≈ 0.97 to 15.5 µM) | 1 to 4 µg/mL (≈ 1.94 to 7.76 µM) | 2 to 4 µg/mL (≈ 3.88 to 7.76 µM) | 4 (≈ 7.76 µM) | – | 1 to 2 µg/mL (≈ 1.94 to 3.88 µM) | –
C[C@@H]1CN2c3c(cc4c(N5CCCOC5=O)noc4c3F)CC3(C(=O)NC(=O)NC3=O)[C@H]2[C@H](C)O1 (racemic) | 4 to 8 (≈ 8.21 to 16.4 µM) | 1 to 64 µg/mL (≈ 2.05 to 131 µM) | 4 µg/mL (≈ 8.21 µM) | 1 to 8 µg/mL (≈ 2.05 to 16.4 µM) | 4 (≈ 8.21 µM) | – | 4 to 8 µg/mL (≈ 8.21 to 16.4 µM) | –
C[C@@H]1CN2c3c(cc4c(N5C(=O)OC[C@@H]5C)noc4c3F)CC3(C(=O)NC(=S)NC3=O)[C@H]2[C@H](C)O1 | – | inactive | inactive | inactive | – | inactive | inactive | inactive
C[C@@H]1CN2c3c(cc4c(N5C[C@H](CN=[N+]=[N-])SC5=O)noc4c3F)CC3(C(=O)NC(=O)NC3=O)[C@H]2[C@H](C)O1 | 0.06 to 0.25 (≈ 0.11 to 0.459 µM) | 0.25 to 0.5 µg/mL (≈ 0.459 to 0.918 µM) | 0.03 to 0.25 µg/mL (≈ 0.0551 to 0.459 µM) | 0.03 to 0.125 µg/mL (≈ 0.0551 to 0.23 µM) | 0.125 to 1 (≈ 0.23 to 1.84 µM) | – | 0.125 µg/mL (≈ 0.23 µM) | –
C[C@@H]1CN2c3c(cc4c(N5C[C@H](CS(C)(=O)=O)SC5=O)noc4c3F)CC3(C(=O)NC(=O)NC3=O)[C@H]2[C@H](C)O1 | 2 to 4 (≈ 3.44 to 6.88 µM) | 1 to 8 µg/mL (≈ 1.72 to 13.8 µM) | 0.25 to 1 µg/mL (≈ 0.43 to 1.72 µM) | 0.25 to 1 µg/mL (≈ 0.43 to 1.72 µM) | 0.5 to 1 (≈ 0.86 to 1.72 µM) | – | 0.5 to 4 µg/mL (≈ 0.86 to 6.88 µM) | –
C[C@@H]1CN2c3c(cc4c(N5C(=O)SC[C@@H]5Cc5ccccc5)noc4c3F)CC3(C(=O)NC(=O)NC3=O)[C@H]2[C@H](C)O1 | 2 to 8 (≈ 3.45 to 13.8 µM) | 8 to 16 µg/mL (≈ 13.8 to 27.6 µM) | 1 to 4 µg/mL (≈ 1.73 to 6.9 µM) | 1 to 4 µg/mL (≈ 1.73 to 6.9 µM) | 4 to 8 (≈ 6.9 to 13.8 µM) | – | 4 to 8 µg/mL (≈ 6.9 to 13.8 µM) | –
C[C@@H]1CN2c3c(cc4c(N5C(=O)OCC5(C)C)noc4c3F)CC3(C(=O)NC(=O)NC3=O)[C@H]2[C@H](C)O1 (racemic) | 16 (≈ 31.9 µM) | 16 µg/mL (≈ 31.9 µM) | 16 µg/mL (≈ 31.9 µM) | 16 µg/mL (≈ 31.9 µM) | 16 (≈ 31.9 µM) | – | 16 µg/mL (≈ 31.9 µM) | –
C[C@@H]1CN2c3c(cc4c(N5CC6(CC6)OC5=O)noc4c3C#N)CC3(C(=O)NC(=O)NC3=O)[C@H]2[C@H](C)O1 | 1 to 4 (≈ 1.97 to 7.9 µM) | 0.03 to 8 µg/mL (≈ 0.0592 to 15.8 µM) | 0.25 to 2 µg/mL (≈ 0.494 to 3.95 µM) | 0.5 to 2 µg/mL (≈ 0.987 to 3.95 µM) | 4 (≈ 7.9 µM) | – | 1 to 2 µg/mL (≈ 1.97 to 3.95 µM) | –
C[C@@H]1CN2c3c(cc4c(N5CCSCC5)ncnc4c3F)CC3(C(=O)NC(=O)NC3=O)[C@H]2[C@H](C)O1 (racemic) | – | inactive | inactive | inactive | – | inactive | inactive | inactive
C[C@@H]1CN2c3c(cc4c(N5CCOCC5)ncnc4c3F)CC3(C(=O)NC(=O)NC3=O)[C@H]2[C@H](C)O1 (racemic) | – | inactive | inactive | inactive | – | inactive | inactive | inactive
CC[C@@H]1CN(c2noc3c(F)c4c(cc23)CC2(C(=O)NC(=O)NC2=O)[C@H]2[C@H](C)O[C@H](C)CN42)C(=O)S1 | – | – | < 0.03 µg/mL | < 0.03 µg/mL | < 0.03 | – | – | –
C[C@@H]1CN2c3c(cc4c(N5C[C@H](c6ccccc6)SC5=O)noc4c3F)CC3(C(=O)NC(=O)NC3=O)[C@H]2[C@H](C)O1 | 0.5 to 1 (≈ 0.884 to 1.77 µM) | 0.125 to 2 µg/mL (≈ 0.221 to 3.54 µM) | 0.5 to 2 µg/mL (≈ 0.884 to 3.54 µM) | 0.125 to 0.5 µg/mL (≈ 0.221 to 0.884 µM) | 4 (≈ 7.07 µM) | – | 1 to 2 µg/mL (≈ 1.77 to 3.54 µM) | –
CC[C@H]1CSC(=O)N1c1noc2c(F)c3c(cc12)CC1(C(=O)NC(=O)NC1=O)[C@H]1[C@H](C)O[C@H](C)CN31 | 0.25 to 0.5 (≈ 0.483 to 0.966 µM) | 0.5 to 1 µg/mL (≈ 0.966 to 1.93 µM) | 0.5 to 1 µg/mL (≈ 0.966 to 1.93 µM) | 0.25 to 0.5 µg/mL (≈ 0.483 to 0.966 µM) | 0.5 to 1 (≈ 0.966 to 1.93 µM) | – | 0.5 to 1 µg/mL (≈ 0.966 to 1.93 µM) | –
C[C@@H]1CN2c3c(cc4c(N5C[C@H](CO)SC5=O)noc4c3F)CC3(C(=O)NC(=O)NC3=O)[C@H]2[C@H](C)O1 | 1 (≈ 1.92 µM) | 0.5 to 4 µg/mL (≈ 0.962 to 7.7 µM) | 0.06 to 0.25 µg/mL (≈ 0.115 to 0.481 µM) | 0.03 to 0.125 µg/mL (≈ 0.0577 to 0.241 µM) | 0.125 to 0.5 (≈ 0.241 to 0.962 µM) | – | 0.125 to 0.25 µg/mL (≈ 0.241 to 0.481 µM) | –
